This note sets out measurements from patent publication US20110237594A1, “FUNGICIDE HERETOCYCLYL-TRIAZINYL-AMINO DERIVATIVES” (priority 2008, published 2011).

SMILES strings stand for the structures.

The test system of the first data set is Rhizoctonia solani. Briefly: Rhizoctonia test (rice) / protective. It counts as in vivo. The note with it: 250 ppm of active ingredient, evaluated 4 days after inoculation. Here is the method:
To produce a suitable preparation of active compound, 1 part by weight of active compound is mixed with the stated amounts of solvent and emulsifier, and the concentrate is diluted with water to the desired concentration. To test for protective activity, young plants are sprayed with the preparation of active compound at the stated rate of application. One day after spraying, the plants are inoculated with a hypha of the causal agent of rice sheath blight (Rhizoctonia solani). The plants are then placed in an incubator at approximately 25° C. and a relative atmospheric humidity of approximately 100%.
In turn, `CCC(C)Nc1cc(-c2ncnc(Nc3ccc(OC)nc3)n2)ccn1` (centres unmarked) [Compound A14] yielded an efficacy of no less than 80%.

For another data set, the system named is Pyricularia oryzae.
Experiment: not given
It counts as in vivo. The following applies: rice, protective, 250 ppm of active ingredient, evaluated 5 days after inoculation.
`CCC(C)Nc1cc(-c2ncnc(Nc3ccc(OC)nc3)n2)ccn1` (centres unmarked) [Compound A14] had an efficacy of no less than 80%.

The next data set concerns Cochliobolus miyabeanus. Nature of the data set: Cochliobolus test (rice) / protective. It counts as in vivo. The note with it: 250 ppm of active ingredient, evaluated 4 days after inoculation.
The molecule `CCC(C)Nc1cc(-c2ncnc(Nc3ccc(OC)nc3)n2)ccn1` (centres unmarked) [Compound A14] returned an efficacy of no less than 80%.

System in the next data set: not listed separately
Nature of the data set: logP by HPLC on reversed phase columns (EEC directive 79/831 Annex V.A8). The note with it: [c] LC-MS at pH 7.8, 0.001 molar ammonium hydrogen carbonate in water, gradient 10% to 95% acetonitrile.
Regarding `COCC(C)Nc1cc(-c2ncnc(Nc3ccc(OC)nc3)n2)ccn1` (centres unmarked) [Compound A1], the Lop p is 2.25[c];.

Consider `COc1ccc(Nc2ncnc(-c3ccnc(NCC(C)C)c3)n2)cn1` [Compound A2, N-(6-methoxypyridin-3-yl)-4-{2-[(2-methylpropyl)amino]pyridin-4-yl}-1,3,5-triazin-2-amine], for which the Lop p was 2.52[c].

Take `CCSCCNc1cc(-c2ncnc(Nc3ccc(OC)nc3)n2)ccn1` [Compound A4]: the Lop p was 2.78[c].

For `COc1ccc(Nc2ncnc(-c3ccnc(NC(C)CN(C)C)c3)n2)cn1` (centres unmarked) [Compound A5], the Lop p is 1.45[c].

In the case of `C=C(C)CNc1cc(-c2ncnc(Nc3ccc(OC)nc3)n2)ccn1` [Compound A6], the Lop p was 2.57[c].

For `COc1ccc(Nc2ncnc(-c3ccnc(NCCCSC)c3)n2)cn1` [Compound A7], the Lop p was 2.62[c].

As to `COc1ccc(Nc2ncnc(-c3ccnc(NCC(C)O)c3)n2)cn1` (centres unmarked) [Compound A8], the Lop p was 1.7[c].

For the molecule `CCC(O)CNc1cc(-c2ncnc(Nc3ccc(OC)nc3)n2)ccn1` (centres unmarked) [Compound A9], the Lop p was 1.97[c].

Turning to `COc1ccc(Nc2ncnc(-c3ccnc(NCCOC(C)C)c3)n2)cn1` [Compound A10], the Lop p is 2.53[c].

Consider `COc1ccc(Nc2ncnc(-c3ccnc(NCCC(C)C)c3)n2)cn1` [Compound A11], for which the Lop p was 3.27[c].

For the molecule `COc1ccc(Nc2ncnc(-c3ccnc(NCCSC)c3)n2)cn1` [Compound A12], the Lop p is 2.44[c].

For `COc1ccc(Nc2ncnc(-c3ccnc(NCC4CCCO4)c3)n2)cn1` (centres unmarked) [Compound A13], the Lop p was 2.17[c].

For `CCC(C)Nc1cc(-c2ncnc(Nc3ccc(OC)nc3)n2)ccn1` (centres unmarked) [Compound A14], the Lop p was 2.47[c].

Still in this data set, the particulars now being: unmarked values: LC-MS at pH 2.7, 0.1% formic acid in water / acetonitrile, gradient 10% to 95% acetonitrile.
`COCC(C)Nc1cc(-c2ncnc(Nc3ccc(OC)nc3)n2)ccn1` (centres unmarked) [Compound A1] yielded a Lop p of 1.3.

For the molecule `COCC(C)Nc1cc(-c2ncnc(Nc3ccsc3)n2)ccn1` (centres unmarked) [Compound A15], the Lop p worked out at 1.4.

Regarding `CC(C)CN(C)c1cc(-c2ncnc(Nc3ccsc3)n2)ccn1` [Compound A16], the Lop p worked out at 1.86.

Molecule `CC(C)C(C)Nc1cc(-c2ncnc(Nc3ccsc3)n2)ccn1` (centres unmarked) [Compound A17] yielded a Lop p of 1.79.

`COCCNc1cc(-c2ncnc(Nc3ccsc3)n2)ccn1` [Compound A18] gave a Lop p of 1.28.

With `CC(C)(C)OC(=O)Nc1cc(-c2ncnc(Nc3ccsc3)n2)ccn1` [Compound A19], the Lop p came out at 3.39.

On to `Nc1cc(-c2ncnc(Nc3ccsc3)n2)ccn1` [Compound A20], for which the Lop p was 0.98.

For the molecule `CN(CC1CC1)c1cc(-c2ncnc(Nc3ccsc3)n2)ccn1` [Compound A21], the Lop p worked out at 1.75.

On to `CCC(C(C)OC)N(C)c1cc(-c2ncnc(Nc3ccsc3)n2)ccn1` (centres unmarked) [Compound A22], for which the Lop p stood at 2.14.

The molecule `CN(CC(F)(F)F)c1cc(-c2ncnc(Nc3ccsc3)n2)ccn1` [Compound A23] came in with a Lop p of 3.42.

Molecule `CN(CC1CCCO1)c1cc(-c2ncnc(Nc3ccsc3)n2)ccn1` (centres unmarked) [Compound A24] yielded a Lop p of 1.59.

`COC1CCCN(c2cc(-c3ncnc(Nc4ccsc4)n3)ccn2)C1` (centres unmarked) [Compound A25]: the Lop p was found to be 1.74.

For the molecule `COCCN(C)c1cc(-c2ncnc(Nc3ccsc3)n2)ccn1` [Compound A26], the Lop p worked out at 1.45.

As for `C=CCN(C)c1cc(-c2ncnc(Nc3ccsc3)n2)ccn1` [Compound A27], the Lop p turned out to be 1.48.

In turn, `CCCN(C)c1cc(-c2ncnc(Nc3ccsc3)n2)ccn1` [Compound A28] registered a Lop p of 1.63.

Molecule `CCN(CC)c1cc(-c2ncnc(Nc3ccsc3)n2)ccn1` [Compound A29] displayed a Lop p of 1.57.

On to `CCC(COC)Nc1cc(-c2ncnc(Nc3ccsc3)n2)ccn1` (centres unmarked) [Compound A30], for which the Lop p is 1.6.

For `CCCC(C)Nc1cc(-c2ncnc(Nc3ccsc3)n2)ccn1` (centres unmarked) [Compound A31], the Lop p came to 1.84.

For `CC(C)CCN(C)c1cc(-c2ncnc(Nc3ccsc3)n2)ccn1` [Compound A32], the Lop p came out at 2.18.

The molecule `CC(C)=CCN(C)c1cc(-c2ncnc(Nc3ccsc3)n2)ccn1` [Compound A33] showed a Lop p of 2.14.

As to `CN(c1cc(-c2ncnc(Nc3ccsc3)n2)ccn1)C1CCCC1` [Compound A34], the Lop p worked out at 1.93.

Take `CN(C)c1cc(-c2ncnc(Nc3ccsc3)n2)ccn1` [Compound A35]: the Lop p is 1.22.

As for `O=CNc1cc(-c2ncnc(Nc3ccsc3)n2)ccn1` [Compound A36], the Lop p is 1.9.

Another data set concerns Pyrenophora teres. Briefly: In vivo test on Pyrenophora teres (barley net blotch). The following applies: barley plants, sprayed 24 hours before contamination, dose 500 ppm, grading 12 days after contamination. On the procedure:
Barley plants (Express variety), sown on a 50/50 peat soil-pozzolana substrate in starter cups and grown at 12° C., are treated at the 1-leaf stage (10 cm tall) by spraying with the active ingredient prepared as described above. Plants, used as controls, are treated with an aqueous solution not containing the active material. After 24 hours, the plants are contaminated by spraying them with an aqueous suspension of Pyrenophora teres spores (12,000 spores per ml). The spores are collected from a 12-day-old culture. […] Grading is carried out 12 days after the contamination, in comparison with the control plants. Under these conditions, good (at least 70%) is observed at a dose of 500 ppm with the following compound: A14
`CCC(C)Nc1cc(-c2ncnc(Nc3ccc(OC)nc3)n2)ccn1` (centres unmarked) [Compound A14]: the “protection (good, at least 70%)” value was “at least 70%”.

The next data set deals with Botrytis cinerea. Briefly: In vivo test on Botrytis cinerea (grey mould). The note with it: gherkin plants, sprayed 24 hours before contamination, dose 500 ppm, grading 5/7 days after contamination. On the procedure: Plants, used as controls, are treated with an aqueous solution not containing the active material. After 24 hours, the plants are contaminated by depositing drops of an aqueous suspension of Botrytis cinerea spores (150,000 spores per ml) on upper surface of the leaves. The spores are collected from a 15-day-old culture and are suspended in a nutrient solution composed of: • 20 g/L of gelatine; • 50 g/L of D-fructose; • 2 g/L of NH4NO3; • 1 g/L of KH2PO4. The contaminated cucumber plants are settled for 5/7 days in a climatic room at 15-11° C. […] Grading is carried out 5/7 days after the contamination, in comparison with the control plants. Under these conditions, good (at least 70%) or total protection is observed at a dose of 500 ppm with the following compound: A14
As to `CCC(C)Nc1cc(-c2ncnc(Nc3ccc(OC)nc3)n2)ccn1` (centres unmarked) [Compound A14], the “protection (good, at least 70%, or total)” value was “at least 70%”.
